According to patent US11274131B2, “IgM-mediated receptor clustering and cell modulation” (MAYO FOUNDATION FOR MEDICAL EDUCATION AND RESEARCH, priority 2007, dated 2022):

System: matured human monocyte-derived DC
Assay: Antigen uptake assay, matured human DC
Assay type: cell-based
Conditions: inhibitor pretreatment before B7-DC XAb
Procedure: FIGS. 2A to 2G are a series of pictures showing that a kinase activated pathway regulates antibody-induced antigen uptake by matured DC. Matured human monocyte-derived DC were treated with the MTAb B7-DC XAb for varying time periods and evaluated for the phosphorylation status of select signaling pathway intermediates by immunoprecipitation with DAP12 (MC457), Syk (4D10), and PLCγ1 (MC490) reactive antibodies followed by western blot analysis using the phosphotyrosine reactive antibody 4G10 as a probe (FIGS. 2A-2C). Samples of the cells blocked with indicated concentration of piceatannol (FIG. 2D) or with […] of piceatannol (FIG. 2E) were analyzed for phosphorylation of Syk (FIG. 2D) and PLCγ1 (FIG. 2E). To investigate the functional importance of these signaling intermediates in the regulation of antigen uptake by matured DC activated with B7-DC XAb, varying concentrations of pharmacologic inhibitors were used to block the activity of p72Syk (piceatannol) and PLCγ1 (U73122) (FIGS. 2F and 2G, respectively). Antigen uptake was assessed by pulsing cultures with FITC-conjugated ovalbumin and measuring intracellular fluorescence 16 hours later in CD11c positive cells by flow cytometry.
Human DC were generated from peripheral blood CD14^+ monocytes by incubation in GM-CSF and IL-4 for five days. […] All cultures were pulsed with OVA-FITC at the time of treatment with IgM antibodies, and […] OVA-FITC was assessed 24 hours later by flow cytometry.
FIGS. 4A and 4B are a series of plots showing the effects of kinase inhibitors on OVA-FITC uptake by matured human DC, as determined by flow cytometry. […] All cells were pulsed with OVA-FITC at the time of treatment with IgM antibody, and CD11c+ cells were analyzed for OVA-FITC uptake 24 hours later by flow cytometry. […]
Antigen uptake experiments were carried out as described previously (Radhakrishnan et al. (2005) Proc. Natl. Acad. Sci. U.S.A. 102:11438-11443). […] The matured cells were incubated with ovalbumin labeled with FITC or APC and control antibody or B7-DC XAb for two hours, washed and analyzed by FACSCALIBUR™ (Becton Dickinson). […]

Row | Structure (SMILES) | inhibition of B7-DC XAb-induced antigen uptake by matured DC
1 | CC(C)(C)n1nc(-c2ccc(Cl)cc2)c2c(N)ncnc21 [PP2] | inhibition of antigen uptake
2 | COc1ccc2c(c1)CC[C@@H]1[C@@H]2CC[C@]2(C)[C@@H](NCCCCCCN3C(=O)C=CC3=O)CC[C@@H]12 [U73122] | inhibited uptake of tagged proteins by matured DC in a dose responsive manner
